Consider four compounds from patent US7138147B2, “Arsenic sulfide compounds and derivatives thereof for the treatment of malignancies” (priority 1998, dated 2006).

For data set [1] the following is noted: EPA/600/8-91/061; cited from earlier work.
The conditions of data set [2]: in vivo; cited from earlier work.
For the next data set, the system named is refractory APL. The note with it: intravenous 10 mg/day for 4–9 weeks; cited from earlier work.
Another data set relates to NB4 cells. The note with it: in vitro, APL cell line; cited from earlier work.
Data set [3] can be described thus: Solubility of As4S4 in solvents. The class given is physicochemical. The conditions noted are these: polyvinylpyrrolidone, pyrrolidone, alcohol, ether, di-sodium hydrophosphate, mercaptopurine, sodium bicarbonate; various concentrations. How it is done: In other experiments, a number of solvents, such as polyvinylpyrrolidone, pyrrolidone, alcohol, ether, di-sodium hydrophosphate, mercaptopurine and sodium bicarbonate, were tested to increase solubility of As4S4. […] Accordingly, As4S4 solubilized in the above solvents is useful for intravenous administration.

The subject of data set [4] is acute promyelocytic leukemia (APL). The experiment in a line: Clinical treatment of APL patients with arsenic disulfide. The class given is in vivo, human. From the text:
(§1) Newly diagnosed, or relapsing patients are given a different protocol of treatment than are those patients who are in current remission. […] Preferably the dose given will range from approximately 0.5 to approximately 0.75 gram of arsenic disulfide. This equates to 2 to 3 capsules, according to the above formulation, by mouth for one dose. After the initial three days, the patient is given the compound three times daily until remission is induced. To prevent complications due to the potential build up of arsenic in the body, treatment should not exceed 100 days. In most cases, favorable response should be induced before forty days of treatment. These later doses may be somewhat reduced in amount compared to the original three day dosages. […] At this point, the patient should be reevaluated through testing, and allowed to rest before beginning another course of treatment according to the present protocol.
(§2) The patient then abstains from treatment for a set period of time. During this time, the patient is tested. Treatment is adjusted according to test results with the period of abstention lasting from two weeks to 100 days, depending upon results. The length of the maintenance procedure varies according to patients' conditions, and may last as long as 3 years (including treating and resting periods). Each dose during this phase of treatment preferably contains arsenic disulfide in the range of approximately 0.50 to 0.75 gram. Once again the preferred method of administration is orally through use of a capsule as described above. Usually, a maintenance treatment is divided into two stages.
All patients who make up a part of the case studies have been diagnosed with APL on the basis of cell morphology of AML-M3, that is acute hypergranular promyelocytic leukemia, immunological cell markers, chromosomal analysis showing (15;17) translocation, and positive PML/RARα mRNA expression. Some patients were referred to the study with a diagnosis based solely on pathologic changes in cell morphology; these patients' diagnoses were tracked and reconfirmed throughout the study. Chronic myeloid leukemia and lymphoma patients have also benefitted from arsenic disulfide treatment, as illustrated by case studies 3 and 4.
Fifty-one patients met the inclusion criteria for the study.
(§3) Exclusion criteria for the study included history of hypersensitivity to arsenic compounds, previous treatment with arsenic-containing medications, patient in critical condition, excessively low or high white blood counts, existing heart, liver or kidney conditions, and severe infection. Three patients were excluded on these grounds, leaving 48 patients in the study. All 48 cases were treated with arsenic disulfide according to the above protocol. ATRA or other cytotoxic agents were not used. All 48 patients are living and Leukemia free as of April, 1998.

The nature of data set [5]: Side effects of arsenic disulfide treatment in patients. The class given is in vivo, human.
Text: as §1, §2, §3
Side effects of treatment with arsenic disulfide are minimal when compared to those of other antineoplastic agents. Potential side effects include loss of appetite, mild diarrhea, and transient reversible increase of aspartate aminotransferase (AST). A minority of patients experienced cutaneous itching or puffing of the eyelids, and mild leukopenia occurred slowly in 34% of patients. One patient had thrombocytopenia without bleeding. There were no deaths associated with the use of arsenic sulfide.

Data set [6] relates to chronic myeloid leukemia (CML). The experiment in a line: Case study 3: chronic myeloid leukemia patient. The class given is in vivo, human. The conditions noted are these: case study 3, 0.6 gram twice daily. Here is the method:
A person was diagnosed as having chronic myeloid leukemia (CML) in February, 1959. […] Initially, they were treated with Myleran. On Jan. 20, 1960, the white blood cell count was […] showing a differential count of 11% promyelocyte and myelocyte. […] Patient was given 0.6 gram of arsenic disulfide twice daily. While being treated, blood and bone marrow pictures were controlled. The patient died, on Sep. 5, 1965 from infection unrelated to the arsenic sulfide treatment.

The subject of the next data set is non-Hodgkin's lymphoma. The experiment in a line: Case study 4: non-Hodgkin's lymphoma patient. The conditions noted are these: case study 4, resistant to conventional anticancer treatment; since March, 1998. The class given is in vivo, human.
Text: as §1
A person diagnosed with non-Hodgkin's lymphoma in September 1996 was treated with a combination chemotherapy regimen and had cranial irradiation for meningeal lymphoma. They also had high dose chemo-radiotherapy for autologous stem cell transplant. The patient has several relapses including intracranial relapse and a large amount of lymphoma cells in peripheral blood with typical clinical and laboratory features of lymphoma/leukemia. […]

Turning to `S=[As]S[As]=S` (stereo not drawn) [arsenic trisulfide], the carcinogenicity classification entry in [1] is “human carcinogens”. In addition, the tumorigenicity entry in [2] is recorded as “inconclusive”.
Take calcium arsenate [reference compound]: the tumorigenicity result in [2] is recorded as “tumorigenic”.
As to arsenic trioxide, the “patients with complete morphologic remission” value in the data set with refractory APL is given as 14 of 15. Besides, the “apoptosis (programmed cell death)” value with NB4 cells is “induced apoptosis”.
As to `S1[As]2S[As]3S[As]2S[As]13` [arsenic disulfide], the solubility in solvents result in [3] is listed as “soluble”. The “time to complete remission level” value in data set [4] (case study 1) is given as 36 days. Also, the “blast cells and leukemic promyelocytes” value in data set [4] (case study 1, Aug. 28, 1997) is on record as “less than 5%”. In addition, in data set [4] (case study 1, FIG. 1), the “hemoglobin and platelet levels” value was “marked increase”. In addition, the “blasts and white blood cells” value in data set [4] (case study 1, FIG. 2) is recorded as “dramatic decrease”; in [4] (case study 2, FIG. 4) it was “dramatic change”. In addition, the clinical outcome is on record as “complete remission” in data set [4] (case study 1, newly diagnosed APL); “complete remission” in data set [4] (case study 2, relapsed APL, treated 21 days); “in remission” in the data set with non-Hodgkin's lymphoma. In data set [4] (of 48 APL patients treated, as of April, 1998, no ATRA or cytotoxic agents), the “patients living and leukemia free” value amounted to 48 patients. The “patients attaining complete remission after one course of treatment” value in data set [4] (of ten newly diagnosed or relapsed patients) was “Eight”. Further, in data set [4] (patients in complete remission before treatment with positive markers), the “markers indicating residual leukemia cells after maintenance protocol” value was “persistently negative”. Moreover, the “patients alive and remaining in complete remission, leukemia free” value in [4] (ten newly diagnosed or relapsed patients) was “All ten”. In data set [5] (human, in vivo), the “deaths associated with use” value is “no deaths”. Besides, in [5] (human, in vivo), the thrombocytopenia without bleeding result is listed as “One patient”. Moreover, the “mild leukopenia, incidence” value in data set [5] (occurred slowly) is reported as 34 % of patients. In addition, the “side effects compared to other antineoplastic agents” value in data set [5] (patients) is recorded as “minimal”. Moreover, the “blood and bone marrow pictures” value in data set [6] is “controlled”. Besides, the carcinogenicity classification result in [1] is “human carcinogens”.
